The values below come from patent publication US6384236B1, “N-(aroyl)glycine hydroxamic acid derivatives and related compounds” (Pfizer Inc, priority 1995, dated 2002).

The structures appear in SMILES notation.

On to `COc1ccc(C(=O)NCC(=O)O)cc1OC1CCCC1` [Example 17], for which the melting point (commonly the temperature, or range, at which the solid turns liquid) fell in the range of 156 to 168 °C.
